#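 Each compound was tested at five concentrations against cells in 96-well plates for 48 hours. Abbreviation: GI50, concentration required for 50% inhibition of growth.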 The source made the active and inactive calls. Cut-off read from the data, not from the text of the source: active = GI50 up to about 1.1 µM and inactive = higher.
# How the values were obtained:
# Assay in all cases: inhibition of tumour cell growth, NCI panel, 48 h
# PC-3 = system: PC-3
# SF-268 = system: SF-268
# EKVX = system: EKVX
# OVCAR-4 = system: OVCAR-4
# HT-29 = system: HT-29
# UACC-62 = system: UACC-62
# SR = system: SR
# 786-0 = system: 786-0
# SN12C = system: SN12C
# NCI-H226 = system: NCI-H226
# OVCAR-8 = system: OVCAR-8
# NCI/ADR-RES = system: NCI/ADR-RES
# SF-539 = system: SF-539
# NCI-H460 = system: NCI-H460
# TK-10 = system: TK-10
# HCT-116 = system: HCT-116
# NCI-H522 = system: NCI-H522
# COLO 205 = system: COLO 205
# Malme-3M = system: Malme-3M
# DU-145 = system: DU-145
# HOP-62 = system: HOP-62
# CAKI-1 = system: CAKI-1
# OVCAR-5 = system: OVCAR-5
# A549 = system: A549
# SNB-19 = system: SNB-19
# SK-MEL-2 = system: SK-MEL-2
# LOX IMVI = system: LOX IMVI
# HL-60 = system: HL-60
# HOP-92 = system: HOP-92
# T47D = system: T47D
# SW-620 = system: SW-620
# M14 = system: M14
# ACHN = system: ACHN
# SNB-75 = system: SNB-75
# RPMI-8226 = system: RPMI-8226
# UACC-257 = system: UACC-257
# K562 = system: K562
# CCRF-CEM = system: CCRF-CEM
# MDA-N = system: MDA-N
# IGROV-1 = system: IGROV-1
# U-251 = system: U-251
# RXF 393 = system: RXF 393
# Hs-578T = system: Hs-578T
# HCC 2998 = system: HCC 2998
# NCI-H23 = system: NCI-H23
# MCF7 = system: MCF7
# HCT-15 = system: HCT-15
# SK-MEL-28 = system: SK-MEL-28
# MDA-MB-435 = system: MDA-MB-435
# KM12 = system: KM12
# MOLT-4 = system: MOLT-4
# A498 = system: A498
# MDA-MB-231 = system: MDA-MB-231
structure (smiles),measurement,setting,value
C[C@H](CCC(=O)O)[C@H]1CC[C@H]2[C@@H]3[C@@H](O)C[C@@H]4C[C@H](O)CC[C@]4(C)[C@H]3C[C@H](O)[C@]12C,GI50,PC-3,> 100 µM (inactive)
same,GI50,SF-268,> 100 µM (inactive)
same,GI50,EKVX,> 100 µM (inactive)
same,GI50,OVCAR-4,> 100 µM (inactive)
same,GI50,HT-29,> 100 µM (inactive)
same,GI50,UACC-62,> 100 µM (inactive)
same,GI50,SR,> 100 µM (inactive)
same,GI50,786-0,> 100 µM (inactive)
same,GI50,SN12C,> 100 µM (inactive)
same,GI50,NCI-H226,> 100 µM (inactive)
same,GI50,OVCAR-8,> 100 µM (inactive)
same,GI50,NCI/ADR-RES,> 100 µM (inactive)
same,GI50,SF-539,> 100 µM (inactive)
same,GI50,NCI-H460,> 100 µM (inactive)
same,GI50,TK-10,> 100 µM (inactive)
same,GI50,HCT-116,> 100 µM (inactive)
same,GI50,NCI-H522,> 100 µM (inactive)
same,GI50,COLO 205,> 100 µM (inactive)
same,GI50,Malme-3M,> 100 µM (inactive)
same,GI50,DU-145,> 100 µM (inactive)
same,GI50,HOP-62,> 100 µM (inactive)
same,GI50,CAKI-1,> 100 µM (inactive)
same,GI50,OVCAR-5,> 100 µM (inactive)
same,GI50,A549,> 100 µM (inactive)
same,GI50,SNB-19,> 100 µM (inactive)
same,GI50,SK-MEL-2,> 100 µM (inactive)
same,GI50,LOX IMVI,> 100 µM (inactive)
same,GI50,HL-60,> 100 µM (inactive)
same,GI50,HOP-92,> 100 µM (inactive)
same,GI50,T47D,> 100 µM (inactive)
same,GI50,SW-620,> 100 µM (inactive)
same,GI50,M14,> 100 µM (inactive)
same,GI50,ACHN,> 100 µM (inactive)
same,GI50,SNB-75,> 100 µM (inactive)
same,GI50,RPMI-8226,> 100 µM (inactive)
same,GI50,UACC-257,> 100 µM (inactive)
same,GI50,K562,> 100 µM (inactive)
same,GI50,CCRF-CEM,> 100 µM (inactive)
same,GI50,MDA-N,> 100 µM (inactive)
same,GI50,IGROV-1,> 100 µM (inactive)
same,GI50,U-251,> 100 µM (inactive)
same,GI50,RXF 393,> 100 µM (inactive)
same,GI50,Hs-578T,16.4 µM (inactive)
same,GI50,HCC 2998,> 100 µM (inactive)
same,GI50,NCI-H23,> 100 µM (inactive)
same,GI50,MCF7,> 100 µM (inactive)
same,GI50,HCT-15,> 100 µM
same,GI50,SK-MEL-28,> 100 µM (inactive)
same,GI50,MDA-MB-435,> 100 µM (inactive)
same,GI50,KM12,> 100 µM (inactive)
same,GI50,MOLT-4,> 100 µM (inactive)
same,GI50,A498,> 100 µM (inactive)
same,GI50,MDA-MB-231,> 100 µM (inactive)
